The source of these data is article PMC6337671, “Simultaneous Determination of Five Phenolic Acids and Four Flavonoid Glycosides in Rat Plasma Using HPLC-MS/MS and Its Application to a Pharmacokinetic Study after a Single Intravenous Administration of Kudiezi Injection” (Molecules, 2018).

As a reminder, the AUC(0-inf) is the area under the concentration-time curve extrapolated to infinity. Higher therefore signals more exposure. The term clearance denotes the rate of elimination divided by the concentration. Low values mean inefficient removal, high ones efficient removal. Broadly, the half-life is the time in which the quantity being followed falls by half. Usually Vd stands for the apparent volume that relates the amount in the body to the concentration in plasma or blood.

Data set [1] is described as follows: Pharmacokinetic study in rats after a single intravenous administration of concentrated Kudiezi injection (HPLC-MS/MS of plasma). Type of data set: in vivo, Sprague-Dawley rats. Particulars: male, Sprague-Dawley, rat, plasma, iv, 3.6 mL/kg, single i.v. 3.6 mL/kg of 15 times concentrated KI, mean ± SD; for AUC(0-inf) / clearance / half-life: n = 5; for AUC(0-t): n = 5, read-out: AUC0-t; for MRT last: n = 5, read-out: MRT0-t; for MRT inf: n = 5, read-out: MRT0-∞; for Vd: n = 5, read-out: Vd.
Protocol: Eight male Sprague-Dawley rats (200 ± 20 g) were obtained from Laboratory Animal Center of Fujian Medical University (Fuzhou, China). The animal studies were conducted in accordance with the Guide for the Care and Use of Laboratory Animals published by the USA National Institutes of Health (NIH Publication No. 85-23, revised 1996) and were approved by the Animal Ethic Review Committee of Fujian Medical University (Fuzhou, China). The rats were housed in rat cages (48 × 29 × 18 cm^3), in a unidirectional airflow room at a temperature of 22 ± 2 °C, a relative humidity of 40–70% and a 12 h light/dark cycle. They were fed with freely available commercial food and filtered tap water, and fasted with free access to water for 12 h before the experiments. Three of these rats were selected randomly as blank group with the above mentioned feeding conditions and without administration of drug, and after 24 h from the beginning of the experiment, their blood was collected up exhaustively from abdominal aorta to provide blank plasma for methodological validation. […] All rats were acclimated to the facilities and environment for 7 days before the experiments.
After administration, the rat tail was carefully cleaned with alcohol soaked cotton balls around the injection site to remove the residual drug. Blood was collected from the cut-tail before dosing and at the following time points: 2.5, 5, 10, 15, 20, 30, 45 min and 1, 2, 3, 4, 6, 8, 12 and 24 h after dosing. Plasma was isolated from the blood samples by centrifugation and then stored at −80 °C until analysis.
Noncompartmental pharmacokinetic parameters were calculated by DAS 3.0 software (Version DAS 3.2.8, Chinese Pharmacologic Society, Beijing, China). All the results are expressed as mean ± SD. A single-tailed Student’s t test was performed in the work.

A short description of data set [2]: Stability of the nine components in rat plasma QC samples (auto-sampler, freeze-thaw, long-term). Type of data set: physicochemical. Particulars: n = 5; for 6 h in Auto-Sample, RE: extracted rat plasma; for Freeze-Thaw Stability (Three Cycles), RE / Long-Term Stability (−80 °C, 14 Days), RE: rat plasma. As for the experimental part: The stability of the nine components in rat plasma was investigated under a variety of storage and process conditions. Table 4 summarizes the results of post-preparation (The QC samples were kept in the auto-sampler for 6 h), freeze and thaw and long-term (at −80 °C for 14 days) stability experiments.
Stability of the nine components were assessed under the condition of placing extracted plasma samples in auto-sampler for 6 h, as well as placing plasma samples within freeze-thaw three cycles and at −80 °C for 14 days. LQC, MQC and HQC samples with five replicates at each level were kept at the above conditions and analyzed against freshly prepared calibrators as the reference.

For data set [3], the system named is Mas-related G protein coupled receptor X2. More on the design: method as in PMID 30048896. To be noted: cited from earlier work.
Setting [4] is: HQC spiked 2000 ng/mL (4000 ng/mL for II).
[5] abbreviates: LQC spiked 15 ng/mL (30 ng/mL for II).
The mark [6] stands for this setting: MQC spiked 500 ng/mL (1000 ng/mL for II).

With `O=C(O)[C@H]1O[C@@H](Oc2cc(O)c3c(=O)cc(-c4ccc(O)c(O)c4)oc3c2)[C@H](O)[C@@H](O)[C@@H]1O` [VII, luteolin-7-O-β-D-glucuronide], in data set [1], the AUC(0-inf) stood at 680 ± 109 ng·h/mL, the clearance is 95.5 mL/min/kg, the half-life was 39.6 ± 12 min and the AUC(0-t) was 672 ± 107 ng·h/mL. Besides, in data set [1], the MRT last came to 15 ± 6.6 min, the MRT inf was 18 ± 7.2 min and the Vd is 5.3 ± 1.21 L/kg. Moreover, in data set [2] (setting [4]), the “6 h in Auto-Sample, RE” value is listed as 5.65%; the “Freeze-Thaw Stability (Three Cycles), RE” value came out at 9.76%; the “Long-Term Stability (−80 °C, 14 Days), RE” value (from here on “Long-Term Stability”) is given as 8.01%. In data set [2] (setting [5]), the “6 h in Auto-Sample, RE” value was −7.74%; the “Freeze-Thaw Stability (Three Cycles), RE” value was −10.80%; the “Long-Term Stability” value was −2.91%. Also, in data set [2] (setting [6]), the “6 h in Auto-Sample, RE” value is recorded as −12.46%; the “Freeze-Thaw Stability (Three Cycles), RE” value was −1.08%; the “Long-Term Stability” value is listed as −0.26%. For the same molecule, the “identified as potential anaphylactoid component in KI” value in data set [3] is “potential anaphylactoid components”.

Regarding `O=c1cc(-c2ccc(O)c(O)c2)oc2cc(O[C@@H]3O[C@H](CO)[C@@H](O)[C@H](O)[C@H]3O)cc(O)c12` [VIII, luteolin-7-O-β-D-glucoside], in data set [1], the AUC(0-inf) was 31 ± 2.09 ng·h/mL, the clearance was 138 mL/min/kg, the half-life is 7.8 ± 1.2 min and the AUC(0-t) is 29.5 ± 2.38 ng·h/mL. For the same molecule, in data set [1], the MRT last stood at 5.4 ± 1.2 min, the MRT inf amounted to 6.6 ± 1.2 min and the distribution volume (Vd) turned out to be 1.51 ± 0.35 L/kg. In data set [2] (setting [4]), the “6 h in Auto-Sample, RE” value was 0.65%; the “Freeze-Thaw Stability (Three Cycles), RE” value is listed as 3.11%; the “Long-Term Stability” value stood at 11.47%. Further, in data set [2] (setting [5]), the “6 h in Auto-Sample, RE” value is −12.91%; the “Freeze-Thaw Stability (Three Cycles), RE” value was −11.91%; the “Long-Term Stability” value is −1.72%. In data set [2] (setting [6]), the “6 h in Auto-Sample, RE” value is reported as −8.04%; the “Freeze-Thaw Stability (Three Cycles), RE” value was 0.67%; the “Long-Term Stability” value is 0.81%. In addition, the “identified as potential anaphylactoid component in KI” value in data set [3] is listed as “potential anaphylactoid components”.
